The values that follow come from US6413947B1, “Anilide derivative, production and use thereof” (Takeda Chemical Industries, Ltd., priority 1997, dated 2002).

For orientation: melting point means the temperature of the solid-liquid transition.

The compound `Cc1ccc(-c2cccc(/C=C/C(=O)Nc3ccc(-c4cccc[n+]4[O-])cc3)c2)cc1` [Compound 189, (E)-N-[4—(1-oxidopyridin-2-yl)phenyl]-3—(4-methylphenyl)cinnamamide] yielded a melting point of 240 to 241 °C.

Consider `Cc1ccc(-c2cccc(/C=C/C(=O)Nc3ccc(Cc4ccccn4)cc3)c2)cc1` [Compound 190, (E)-N-[4—(2-pyridylmethyl)phenyl]-3—(4-methylphenyl)cinnamamide], for which the melting point lay in the range of 169 to 171 °C. To `Cc1ccc(-c2cccc(/C=C/C(=O)Nc3ccc(Cc4cccc[n+]4[O-])cc3)c2)cc1` [Compound 191, (E)-N-[4—(1-oxidopyridin-2-ylmethyl)phenyl]-3—(4-methylphenyl)cinnamamide] belongs 183 to 185 °C; to `Cc1ccc(-c2cccc(/C=C/C(=O)Nc3ccc(-c4cccnc4)cc3)c2)cc1` [Compound 192, (E)-N-[4—(3-pyridyl)phenyl]-3—(4-methylphenyl)cinnamamide], 213 to 214 °C; to `CCCP(=O)(CCC)Cc1ccc(NC(=O)/C=C/c2cccc(-c3ccc(C)cc3)c2)cc1` [Compound 194, (E)-N-(4-dipropylphosphorylmethylphenyl)-3—(4-methylphenyl)cinnamamide], 225 to 227 °C.

In the case of `Cc1ccc(-c2ccc3c(c2)C=C(C(=O)Nc2ccc(Cc4cccc[n+]4[O-])cc2)CO3)cc1` [Compound 200, N-[4—(1-oxidopyridin-2-ylmethyl)phenyl]-6—(4-methylphenyl)-2H-1-benzopyran-3-carboxamide], the melting point was 261 to 263 °C. The result for `Cc1ccc(-c2ccc3c(c2)C=C(C(=O)Nc2ccc(C(O)c4ccccn4)cc2)C(C)O3)cc1` (stereo not drawn) [Compound 202, N-[4-[hydroxy(2-pyridyl)methyl]-phenyl]-6—(4-methylphenyl)-2-methyl-2H-1-benzopyran-3-carboxamide] reads 202 to 205 °C. The result for `Cc1ccc(-c2ccc3c(c2)C=C(C(=O)Nc2ccc(C(O)c4cccc[n+]4[O-])cc2)C(C)O3)cc1` (stereo not drawn) [Compound 203, N-[4-[hydroxy(1-oxidopyridin-2-yl)-methyl]phenyl]-6—(4-methylphenyl)-2-methyl-2H-1-benzopyran-3-carboxamide] reads 230 to 232 °C; that for `Cc1ccc(-c2csc(/C=C/C(=O)Nc3ccc(CN(C)C4CCOCC4)cc3)c2)cc1` [Compound 212, (E)-N-[4-[N-methyl-N-(tetrahydropyran-4-yl)aminomethyl]-phenyl)-3-[4—(4-methylphenyl)thiophen-2-yl]acrylamide], 188 to 190 °C. The result for `Cc1ccc(-c2cc3c(s2)CCCC(C(=O)Nc2ccc(CN(C)C4CCOCC4)cc2)=C3)cc1` [Compound 214, N-[4-[N-methyl-N-(tetrahydropyran-4-yl)aminomethyl]-phenyl]-2—(4-methylphenyl)-7,8-dihydro-6H-cyclohepta-[b]thiophene-5-carboxamide] reads 201 to 203 °C; that for `Cc1ccc(-c2ccc3nc(C)c(C(=O)Nc4ccc(CN(C)C5CCOCC5)cc4)cc3c2)cc1` [Compound 216, N-[4-[N-methyl-N-(tetrahydropyran-4-yl)aminomethyl]phenyl]-6—(4-methylphenyl)-2-methylquinoline-3-carboxamide], 157 to 160 °C; that for `O=C(Nc1cccc(CN2CCCCC2)c1)C1=Cc2cc(-c3ccccc3)ccc2CC1` [Compound 217, 7-phenyl-N-[3—(piperidinomethyl)phenyl]-3,4-dihydronaphthalene-2-carboxamide], 152 to 153 °C. In turn, `CSc1ccc(-c2ccc3c(c2)C=C(C(=O)Nc2ccc(CN(C)C4CCOCC4)cc2)CCO3)cc1` [Compound 226, N-[4-[N-methyl-N-(tetrahydropyran-4-yl)aminomethyl]-phenyl]-7—(4-methylthiophenyl)-2,3-dihydro-1-benzoxepine-4-carboxamide] showed a melting point of 180 to 186 °C. The result for `Cc1ccc(-c2ccc3c(c2)C=C(C(=O)Nc2ccc(C[N+](C)(C)CCCO)cc2)CCO3)cc1.[I-]` [Compound 240, dimethyl-3-hydroxypropyl-(N-(7-(4-methylphenyl)-2,3-dihydro-1-benzoxepin-4-carbonyl)-4-aminobenzyl)ammonium iodide] reads 216 to 219 °C. Consider `Cc1ccc(-c2ccc3c(c2)C=C(C(=O)Nc2ccc(C[N+](C)(C)C4CCOCC4)cc2)CCS3)cc1.[I-]` [Compound 241, dimethyl-(N-(7-(4-methylphenyl)-2,3-dihydro-1-benzothiepine-4-carbonyl)-4-aminobenzyl)-N-(4-tetrahydropyranyl)ammonium iodide], for which the melting point was 220 to 222 °C (dec.).

Consider `Cc1ccc(-c2ccc3c(c2)C=C(C(=O)Nc2ccc(CP4(=O)CCCCC4)cc2)CCC3)cc1` [Compound 252, 2-(4-methylphenyl)-N-(4-((1-oxophosphorinane-1-yl)methyl)phenyl)-6,7-dihydro-5H-benzocycloheptene-8-carboxamide], for which the melting point was 282 to 283 °C (dec.).

Regarding `CN(Cc1ccc(NC(=O)C2=Cc3cc(-c4ccc(S(C)(=O)=O)cc4)ccc3OCC2)cc1)C1CCOCC1` [Compound 273, 7-(4-methylsulfonylphenyl)-N-[4-[N-methyl-N-(tetra-hydropyran-4-yl)aminomethyl]phenyl]-2,3-dihydro-1-benzoxepine-4-carboxamide], the melting point fell in the range of 233 to 235 °C. `CC(C)c1ccc(-c2ccc(/C=C/C(=O)Nc3ccc(CN(C)C4CCOCC4)cc3)s2)cc1` [Compound 274, (E)-3-[5-(4-isopropylphenyl)thiophen-2-yl]-N-[4-[N-methyl-N-(tetrahydropyran-4-yl)aminomethyl]-phenyl]acrylamide] had a melting point of 187 to 189 °C. To `CN(Cc1ccc(NC(=O)/C=C/c2ccc(-c3ccc(C(C)(C)C)cc3)s2)cc1)C1CCOCC1` [Compound 276, (E)-3-[5-(4-tert-butylphenyl)thiophen-2-yl]-N-[4-[N-methyl-N-(tetrahydropyran-4-yl)aminomethyl]phenyl]acrylamide] belongs 216 to 220 °C; to `Cc1ccc(-c2cc3ccc(C(=O)Nc4ccc(CN(C)C5CCOCC5)cc4)cc3o2)cc1` [Compound 278, 2-(4-methylphenyl)-N-[4-[N-methyl-N-(tetrahydropyran-4-yl)aminomethyl]phenyl]benzofuran-6-carboxamide], 224 to 227 °C; to `COc1ccc(-c2ccc3c(c2)C=C(C(=O)Nc2ccc(CN(C)C4CCOCC4)cc2)CCS3)cc1` [Compound 282, 7-(4-methoxyphenyl)-N-[4-[N-methyl-N-(tetrahydropyran-4-yl)aminomethyl]phenyl]-2,3-dihydro-1-benzothiepine-4-carboxamide], 162 to 164 °C. The result for `COc1ccc(-c2ccc3c(c2)C=C(C(=O)Nc2ccc(CN(C)C4CCC5(CC4)OCCO5)cc2)CCS3)cc1` [Compound 283, N-[4-[N-(4,4-ethylenedioxy-cyclohexyl)-N-methylaminomethyl]phenyl]-7-(4-methoxy-phenyl)-2,3-dihydro-1-benzothiepine-4-carboxamide] reads 198 to 201 °C; that for `COc1ccc(-c2ccc3c(c2)C=C(C(=O)Nc2ccc(CN(C)C4CCC(=O)CC4)cc2)CCS3)cc1` [Compound 284, 7-(4-methoxyphenyl)-N-[4-[N-methyl-N-(4-oxocyclohexyl)aminomethyl]phenyl]-2,3-dihydro-1-benzothiepine-4-carboxamide], 133 to 139 °C; that for `CN(Cc1ccc(NC(=O)C2=Cc3cc(-c4ccc(N5CCOCC5)cc4)ccc3SCC2)cc1)C1CCOCC1` [Compound 285, N-[4-[N-methyl-N-(tetrahydropyran-4-yl)aminomethyl]phenyl]-7-(4-morpholinophenyl)-2,3-dihydro-1-benzothiepine-4-carboxamide], 255 to 259 °C.

In turn, `CN(Cc1ccc(NC(=O)C2=Cc3cc(-c4ccc5c(c4)OCO5)ccc3SCC2)cc1)C1CCOCC1` [Compound 286, 7-(3,4-methylenedioxyphenyl)-N-[4-[N-methyl-N-(tetrahydropyran-4-yl)aminomethyl]phenyl]-2,3-dihydro-1-benzothiepine-4-carboxamide] gave a melting point of 193 to 194 °C.

Turning to `CCOc1ccc(-c2ccc3c(c2)C=C(C(=O)Nc2ccc(CN(C)C4CCC5(CC4)OCCO5)cc2)CCO3)cc1` [Compound 287, 7-(4-ethoxyphenyl)-N-[4-[N-(4,4-ethylenedioxycyclohexyl)-N-methylaminomethyl]-phenyl]-2,3-dihydro-1-benzoxepine-4-carboxamide], the melting point was in the range of 172 to 174 °C. The result for `Cc1ccc(S(=O)(=O)N2CCC(c3cccc4c3CCCC(C(=O)Nc3ccc(CN(C)C5CCOCC5)cc3)=C4)CC2)cc1` [Compound 289, 4-[1-(4-methylphenylsulfonyl)piperidin-4-yl]-N-(4-(N-methyl-N-(tetrahydropyran-4-yl)aminomethyl]phenyl]-6,7-dihydro-5H-benzocycloheptene-8-carboxamide] reads 175 to 176 °C; that for `Cc1ccc(-c2ccc3c(c2)C=C(C(=O)Nc2ccc(CN(C)C4CCOCC4)cc2)CCO3)s1` [Compound 290, N-[4-[N-methyl-N-(tetrahydropyran-4-yl)amino-methyl]phenyl]-7-(5-methyl-2-thienyl)-2,3-dihydro-1-benzoxepine-4-carboxamide], 129 to 130 °C. `CN(Cc1ccc(NC(=O)C2=Cc3cc(-c4ccsc4)ccc3OCC2)cc1)C1CCOCC1` [Compound 291, N-[4-[N-methyl-N-(tetrahydropyran-4-yl)aminomethyl]phenyl]-7-(3-thienyl)-2,3-dihydro-1-benzoxepine-4-carboxamide] came in with a melting point of 194 to 195 °C. The result for `Cc1csc(-c2ccc3c(c2)C=C(C(=O)Nc2ccc(CN(C)C4CCOCC4)cc2)CCO3)c1` [Compound 292, N-[4-[N-methyl-N-(tetra-hydropyran-4-yl)aminomethyl]phenyl]-7-(4-methyl-2-thienyl)-2,3-dihydro-1-benzoxepine-4-carboxamide] reads 147 to 148 °C.
